According to US20250064875A1, “PHARMACEUTICAL COMPOSITION FOR PREVENTING OR TREATING MUSCLE DISEASES” (KOSA BIO INC., priority 2021, published 2025):

Tests used:
[1] = system: C2C12 myoblast cells differentiated to myotubes; assay: Inhibition of myocyte apoptosis: MTT cell viability in dexamethasone-treated myotubes; type: cell-based; details: 10 μM dexamethasone, FL, FV, FI 2.5-20 μg/mL or amino acid controls, 24 hours, FIGS. 4-6
Experimental: Firstly, C2C12 myoblast cells (from ATCC, USA) were cultured in DMEM supplemented with 10% fetal bovine serum (FBS) and 1% antibiotic-antimycotic at 37° C. under a 5% CO2 atmosphere. Thereafter, the medium was replaced with one containing 2% horse serum (HS) for incubation of additional 72 hours. […] Post-treatment, the cells were observed again under a microscope. The results of the differentiation to myotubes are presented in FIG. 1, and the observations post-dexamethasone treatment in FIG. 2.
After 24 hours, the culture medium was removed, and MTT reagent (5 mg/mL) was added to each well and incubated for 4 hours. Subsequently, DMSO was added to dissolve any precipitates, and the absorbance was read at 570 nm.
Apart from FL, which was found in elderberry extracts, fructose-valine (FV) and fructose-isoleucine (FI) conjugates in which the branched-chain amino acid valine or isoleucine is conjugated to the monosaccharide fructose were also tested for inhibition against myocyte apoptosis. Experiments were conducted in the same manner and conditions as in Experiment Example 1-2, except that FL, FV, or FI was used at concentrations of 2.5, 5, 10, or 20 μg/mL instead of elderberry extracts. As controls, amino acids such as leucine, valine, isoleucine, tryptophan, arginine, tyrosine, glycine, lysine, methionine, phenylalanine, or threonine were used. The cell viability calculated from the treatments with FL, FV, or FI are presented in FIG. 4, and results from amino acid treatments in FIGS. 5 and 6.

TNFα = assay: Inhibition of TNFα expression (qPCR) in dexamethasone-treated myotubes; type: cell-based; details: cells treated with FL, FV or FI 2.5-20 μg/mL, FIG. 8
Experimental: The cells treated with elderberry extracts as in Experimental Example 1-2 were further treated with trypsin to collect only the cells. After centrifugation of the collected cells at 3,000 rpm for 5 minutes, the supernatant was removed and total RNA was extracted by sequentially treating with RiboEx™ and Hybrid-R™ (GeneAll, Korea). The concentration of the extracted RNA was measured using a Nanodrop, and this RNA was used as a template to synthesize cDNA. The cDNA was synthesized using a mixture of RNA, oligo-(dT) primers, and 2×HyperScript™ RT Master Mix (GeneAll, Korea). Subsequently, real-time PCR (qPCR) was performed using the synthesized cDNA as a template and Power SYBR™ Green PCR Master Mix under standard conditions to confirm the expression of TNFα.
Cells treated with FL, FV, or FI as in Experimental Example 1-3 were trypsinized to collect only the cells, and the level of TNFα expression was examined using the same conditions and methods as described in Experimental Example 2-1.

TM3 cell line = assay: Promotion of testosterone secretion (ELISA) in H2O2-treated Leydig cells; type: cell-based; details: 500 μM H2O2 6 hours; extract 12.5-100 μg/mL or FL 1.25-10 μg/mL; ELISA of medium; FIG. 9
Experimental: First, the TM3 cell line (from ATCC, USA), which is Leydig cells, were cultured using a standard method. The cultured cells were treated with 500 μM of hydrogen peroxide (H2O2) for 6 hours, followed by the addition of either 12.5, 25, 50, or 100 μg/mL of the hot water extract of elderberry or 1.25, 2.5, 5, or 10 μg/mL of FL (fructose-leucine). Subsequently, ELISA was performed using the cultured cell medium to determine the levels of testosterone, and the results are presented in FIG. 9.

MuRF-1 = assay: Inhibition of muscle protein expression (qPCR): MuRF-1; type: cell-based; details: cells treated with FL, FV or FI 2.5-20 μg/mL
Description: (§1) The ability of the elderberry extracts and monosaccharide-BCAA conjugate compounds prepared above to inhibit the expression of muscle proteins was confirmed using the qPCR method. Specifically, muscle RING-finger protein-1 (MuRF-1) and atrogin-1, which are both markers of muscle atrophy, and myostatin, which a negative regulator of skeletal muscle mass, were used as target muscle proteins.
(§2) Using the cells treated with the hot water extract, 50% ethanol extract, or 100% ethanol extract of elderberry described in Experimental Example 1-2, qPCR was performed as described above.
(§3) Using the cells treated with FL, FV, or FI as described in Experimental Example 1-3, qPCR was performed as previously outlined.

atrogin-1 = assay: Inhibition of muscle protein expression (qPCR): atrogin-1; type: cell-based; details: cells treated with FL, FV or FI 2.5-20 μg/mL
Description: as §1, §2, §3

myostatin = assay: Inhibition of muscle protein expression (qPCR): myostatin; type: cell-based; details: cells treated with FL, FV or FI 2.5-20 μg/mL
Description: as §1, §2, §3

sarcopenia animal model [2] = assay: Sarcopenia animal model, body composition by DXA; type: in vivo, mice; details: for lean body weight / BMC / BMD(g/cm^2) / fat / fat(%) / tissue area(cm^2): DXA; for lean body weight: C57BL/6 mice, dexamethasone 20 mg/kg i.p. daily, extract 300 mg/kg or FL 0.5 mg/kg oral daily; for BMC / BMD(g/cm^2) / fat / fat(%) / tissue area(cm^2): same model and doses
Experimental: Specifically, male C57BL/6 mice (7 weeks old, Samtako Bio Korea, Korea) were acclimatized, and their body weight (g), lean body weight (g), fat mass (g), and body fat percentage (%) were measured using dual-energy X-ray absorptiometry (DXA). […] A control group consisted of untreated 5 mice (normal mice) at day 0 of treatment. On days 7 and 14 of treatment, the mice were scanned using DXA to measure body weight, lean body weight, fat mass, and body fat percentage; the results are presented in FIG. 14 and Tables 2 and 3.

sarcopenia animal model [3] = assay: Sarcopenia animal model, excised tissue weights; type: in vivo, mice; details: day 14; for Thymus: dexamethasone 20 mg/kg i.p., extract 300 mg/kg or FL 0.5 mg/kg oral daily
Experimental: Specifically, male C57BL/6 mice (7 weeks old, Samtako Bio Korea, Korea) were acclimatized, and their body weight (g), lean body weight (g), fat mass (g), and body fat percentage (%) were measured using dual-energy X-ray absorptiometry (DXA). […] A control group consisted of untreated 5 mice (normal mice) at day 0 of treatment.

[4] = result in words, sarcopenia mice, 14 days
[5] = excised tissue weight, same model and doses

Row | Structure (SMILES) | cell viability reduced by dexamethasone [1] | level of TNFα expression increased by dexamethasone (TNFα) | mRNA expression level of MuRF-1 increased by dexamethasone (MuRF-1) | mRNA expression level of atrogin-1 increased by dexamethasone (atrogin-1) | mRNA expression level of myostatin increased by dexamethasone (myostatin) | lean body weight (sarcopenia animal model [2]; Day 0) [g] | BMC (sarcopenia animal model [2]; Day 0) [g] | BMD(g/cm^2) (sarcopenia animal model [2]; Day 0) | fat (sarcopenia animal model [2]; Day 0) [g] | fat(%) (sarcopenia animal model [2]; Day 0) | tissue area(cm^2) (sarcopenia animal model [2]; Day 0) | lean body weight (sarcopenia animal model [2]; Day 7) [g] | BMC (sarcopenia animal model [2]; Day 7) [g] | BMD(g/cm^2) (sarcopenia animal model [2]; Day 7) | fat (sarcopenia animal model [2]; Day 7) [g] | fat(%) (sarcopenia animal model [2]; Day 7) | tissue area(cm^2) (sarcopenia animal model [2]; Day 7) | lean body weight (sarcopenia animal model [2]; Day 14) [g] | BMC (sarcopenia animal model [2]; Day 14) [g] | BMD(g/cm^2) (sarcopenia animal model [2]; Day 14) | further results
1 | CC(C)CC(NCC1(O)OCC(O)C(O)C1O)C(=O)O (stereo not drawn) [FL, fructose-leucine] | significantly restored | significantly suppressed | significantly decreased | significantly decreased | significantly decreased | 18.31 ± 1.43 | 0.19 ± 0.04 | 0.053 ± 0.004 | 1.27 ± 0.25 | 6.49 ± 1.03 | 13.13 ± 1.08 | 18.05 ± 0.44 | 0.20 ± 0.03 | 0.059 ± 0.009 | 1.43 ± 0.53 | 7.31 ± 2.47 | 13.83 ± 0.53 | 18.34 ± 0.56 | 0.19 ± 0.04 | 0.056 ± 0.006 | concentration of testosterone suppressed by hydrogen peroxide (TM3 cell line): significantly restored; fat (sarcopenia animal model [2]; Day 14): 1.29 ± 0.19 g; fat(%) (sarcopenia animal model [2]; Day 14): 6.57 ± 0.76%; tissue area(cm^2) (sarcopenia animal model [2]; Day 14): 13.66 ± 0.92 cm^2; body weight of the mice (sarcopenia animal model [2]; [4]): restored; lean body weight of the mice (sarcopenia animal model [2]; [4]): restored; tissue areas of the mice (sarcopenia animal model [2]; [4]): restored; Thymus (sarcopenia animal model [3]; excised tissue weight): 0.009 ± 0.002 g; Liver (sarcopenia animal model [3]; [5]): 1.375 ± 0.117 g; Muscle (sarcopenia animal model [3]; [5]): 0.683 ± 0.18 g; Spleen (sarcopenia animal model [3]; [5]): 0.028 ± 0.009 g; weights of the various tissues (sarcopenia animal model [3]; result in words): restored to levels similar to those of the normal control group
2 | C[C@@H]1C[C@H]2[C@@H]3CCC4=CC(=O)C=C[C@]4(C)[C@@]3(F)[C@@H](O)C[C@]2(C)[C@@]1(O)C(=O)CO [Dexamethasone, dexamethasone, reference compound] | – | – | – | – | – | 18.93 ± 1.42 | 0.23 ± 0.13 | 0.057 ± 0.012 | 1.44 ± 0.16 | 7.1 ± 1.07 | 13.32 ± 2.03 | 17.53 ± 1.36 | 0.16 ± 0.02 | 0.052 ± 0.004 | 1.13 ± 0.34 | 5.99 ± 1.53 | 12.41 ± 1.31 | 17.47 ± 0.29 | 0.16 ± 0.01 | 0.057 ± 0.004 | fat (sarcopenia animal model [2]; Day 14): 1.56 ± 0.34 g; fat(%) (sarcopenia animal model [2]; Day 14): 8.17 ± 1.58%; tissue area(cm^2) (sarcopenia animal model [2]; Day 14): 13.97 ± 0.51 cm^2; Thymus (sarcopenia animal model [3]; excised tissue weight): 0.009 ± 0.004 g; Muscle (sarcopenia animal model [3]; [5]): 0.501 ± 0.064 g; Spleen (sarcopenia animal model [3]; [5]): 0.026 ± 0.01 g
3 | CC(C)[C@H](NCC1(O)OC[C@@H](O)[C@H](O)C1O)C(=O)O (stereo partly drawn) [FV, fructose-valine] | significantly restored | significantly suppressed | significantly decreased | significantly decreased | significantly decreased | – | – | – | – | – | – | – | – | – | – | – | – | – | – | – | –
4 | CC[C@H](C)[C@H](NCC1(O)OC[C@@H](O)[C@@H](O)[C@@H]1O)C(=O)O (stereo partly drawn) [FI, fructose-isoleucine] | significantly restored | significantly suppressed | significantly decreased | significantly decreased | significantly decreased | – | – | – | – | – | – | – | – | – | – | – | – | – | – | – | –
